Data from the supplement of paper PMC8837787.

Test system: Saccharomyces cerevisiae ABC16-Green Monster
Test: growth inhibition at single dose (up to 150 µM), below the 70% cut-off for dose-response; higher = more potent
Conditions: 18 h; 30 °C; YPD
How it was run: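 Drug-sensitive S. cerevisiae ABC16-Green Monster cells were grown overnight in YPD at 30 °C and diluted to log phase (OD600 0.1–0.2). Each library compound was added at one dose of 150 µM to 200 µl culture per well in 96-well plates, in biological duplicates, with untreated cultures alongside. OD600 was read at 0 h and after 18 h at 30 °C. The value is percent growth inhibition; compounds below 70% in both replicates were not taken to dose-response.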

Structure (SMILES) | growth inhibition at single dose [%]
CCN(CC(=O)Nc1ccccc1-c1ccccc1)Cc1nc(=O)c2ccccc2[nH]1 | < 70
CCN1CCN(c2cc(C)c3cc(NC(=O)c4ccc(OC)c(OC)c4)ccc3n2)CC1 | < 70
Nc1ccn(C2O[C@H](CO)[C@@H](O)[C@H]2O)c(=O)n1 (some centres not stated) | < 70
COCC(C)NC(=O)CSc1ncnc2sc(-c3ccccc3)cc12 (configuration not stated) | < 70
CCOC(=O)c1noc(N)c1-c1ccccc1 | < 70
Cc1cccc(NC(=O)c2cc(S(=O)(=O)N(C)c3ccc(F)cc3)ccc2Cl)n1 | < 70
Cc1ccc2c(C)nc(Nc3nc(C)cc(-c4ccccc4)n3)nc2c1 | < 70
CCN(CC)CCCNc1nc(-c2ccc(Cl)cc2)nc2ccccc12 | < 70
Cc1cc2nnc(-c3ccc(C(F)(F)F)cc3)n2[nH]1 | < 70
CN1CCN(c2nccc3[nH]c(-c4cccc(F)c4)cc23)CC1 | < 70
Nc1c(C(=O)N2CCOCC2)sc2nc3c(cc12)CCCCC3 | < 70
COc1cccc(Nc2nc(-c3ccc(CCC(C)NC(C)=O)cc3)cs2)c1 (configuration not stated) | < 70
CCOc1cccc(C(=O)Nc2ccc(-c3nc4ccccc4[nH]3)cc2)c1 | < 70
c1ccc2c(c1)[nH]c1nc(SCc3cn4ccsc4n3)nnc12 | < 70
Cc1ccc(Nc2nc(N)c3ccccc3n2)cc1Cl | < 70
CCN(CC)CCNc1ccnc2cc3ccccc3cc12 | < 70
CC(C)c1ccc2c(c1)/C(=N/NC(=O)c1ccccc1F)C(=O)N2 | < 70
COc1ccc(N2CCN(C(CNC(=O)C3CCCCC3)c3ccc4c(c3)OCO4)CC2)cc1 (configuration not stated) | < 70
CSc1nc2nc(C)c(CCC(=O)N(CC(F)(F)F)C(C)C3CC3)c(C)n2n1 (configuration not stated) | < 70
O=C(Nc1cccc(-c2ccc(NCCCN3CCCC3)nc2)c1)c1ccccc1 | < 70
COc1ccc(Br)cc1C1Nc2ccc3ccccc3c2C2=C1C(=O)CC(c1ccccc1)C2 (configuration not stated) | < 70

Structure (SMILES) | growth inhibition at single dose [%]
CCCn1nc(C(=O)NCCc2ccc(-n3cccn3)cc2)c2ccccc2c1=O | < 70
CC(C)(C)OC(=O)N1CCN(c2nccc(-c3ccc(-c4ccc(Cl)cc4)s3)n2)CC1 | < 70
O=C(NCCc1ccn(-c2ccccc2)n1)C1CCCCC1 | < 70
O=C(O)c1c2c(nc3ccccc13)/C(=C/c1ccccc1Cl)CC2 | < 70
CS(=O)(=O)N1CCCc2cc(-c3csc(Nc4ccccn4)n3)ccc21 | < 70
COc1ccc(-c2cnc3cnc(-c4cccc(OC(C)C)c4)cn23)cc1 | < 70
O=C(Nc1ccsc1C(=O)NC1CCCCC1)c1ccc(F)cc1 | < 70
Cc1cc(C)nc(SCC(=O)N2CCN(C(=O)c3ccco3)CC2)n1 | < 70
Nc1c2c(nc3sc4c(c13)CCCC4)CCCC2 | < 70
CCOC(=O)c1c(C)n(-c2ccccc2)c2ccc(OC(=O)c3cc(OC)c(OC)c(OC)c3)cc12 | < 70
O=C(Nc1ccc2nc(-c3ccccc3Cl)[nH]c2c1)c1ccc(=O)[nH]n1 | < 70
c1ccc(C[C@@H]2CN(c3nccc(Oc4ccc(-n5ccnc5)cc4)n3)CCN2)cc1 | < 70
CCOC(=O)CC(=O)CSc1nnc(-c2ccccc2Cl)n1-c1ccccc1F | < 70
COc1ccccc1CN1CCN2C(=O)[C@@H](Cc3ccc(O)cc3)NC(=O)[C@H]2C1 | < 70
CN(Cc1c(F)cccc1Cl)C(=O)COc1ccc2[nH]c3ccccc3c(=O)c2c1 | < 70
CCN(CC)CCn1c(=N)n(CC(O)c2ccc(Cl)c(Cl)c2)c2ccccc21 (configuration not stated) | < 70
COc1ccc(Nc2ccccc2NC(=O)c2ccc(O)nc2)cc1 | < 70
CCCCCCc1cc2cc(-c3nc4ccccc4[nH]3)c(=Nc3ccccc3C)oc2cc1O | < 70
CCN(CC)C(=O)N1CCN(C)CC1 [Diethylcarbamazine] | < 70
Cc1cccc2nc(C(=O)Nc3ccc4c(c3)nc3n4CCCCC3)cn12 | < 70
Cc1ccc(-c2cnn3c(N4CCCC4)cc(C)nc23)cc1 | < 70

Structure (SMILES) | growth inhibition at single dose [%]
Cc1ccccc1CN1CCC(O)(c2ccc(Cl)c(C(F)(F)F)c2)CC1 | < 70
CC(=O)NC[C@@H]1CN(c2ccc(N3CCOCC3)c(F)c2)C(=O)O1 | < 70
COc1ccc(O)c(C(=O)c2cc(Cl)c3nc4ccccc4c(=O)n3c2)c1 | < 70
CN(C)c1ccc(CNc2ncnc3ccccc23)cc1 | < 70
CCOc1ccc(-c2nc(C(=O)Nc3ncccc3O)cs2)cc1 | < 70
Cc1cc(Nc2ccc(Cl)cc2)n2nc(C(F)(F)F)nc2n1 | < 70
CCCc1cc(O)c2c3c(c(=O)oc2c1)CN(C)CC3 | < 70
O=C(NCc1ccco1)N1CCN(Cc2ccc(Cl)s2)CC1 | < 70
Cn1nnnc1SCC(=O)Nc1ccc(C(=O)Nc2ncccc2O)cc1 | < 70
CN(C)Cc1nc(=O)c2c([nH]1)-c1ccccc1CC2(C)C | < 70
O=C(NCc1ccoc1)N1CCN(Cc2ccc3c(c2)OCO3)CC1 | < 70
C=c1ccccc1=C1NN=C(Nc2ccc(F)c(F)c2F)O1 | < 70
CCOc1ccccc1CN1CCc2nc3cc(C(C)(C)C)nn3c(O)c2C1 | < 70
O=C(Nc1nc2c(s1)CCC2)c1cnn(-c2ccccc2)c1C1CC1 | < 70
COc1ccc(-c2cncc3ccc(C(=O)NCCCn4ccnc4)nc23)cc1 | < 70
Cc1cc(C)n(-c2nc(-c3ccccc3)cc(N(C)CCO)n2)n1 | < 70
COCCNC(=O)c1nn(CCC(C)C)c2c1CN(C(=O)c1cc(C)n[nH]1)CC2 | < 70
COc1cc(-c2nc(-c3ccccc3)c(-c3ccccc3)[nH]2)cc(OC)c1O | < 70
CC(C)(C)C1CCC(CC2=C(O)C(=O)c3ccccc3C2=O)CC1 (configuration not stated) | < 70
COc1ccc(C(=N)N)cc1-c1cn(-c2ccc(C(=N)N)cc2)nn1 | < 70
